From patent US8217049B2, “Use of type V phosphodiesterase inhibitors in the treatment of exercise induced pulmonary hemorrhage in the equine” (ANOxA Corp., priority 2006, dated 2012)
Where “and” joins values, the source holds several entries; their conditions need not be identical. Identical values can stand only once.

How the values were obtained:
[1] = tested on: exercise induced pulmonary hemorrhage (EIPH); blood in the trachea; assay: Endoscopic EIPH scoring (Pascoe et al. 1985) after maximum exercise, placebo-controlled crossover; format: in vivo; design: key: 0: Zero indicates an absence of EIPH; 1 to 4 indicated increasing amounts of blood observed endoscopically in the trachea; details: 10 μg/kg of E4021 prior to maximum exercise (>1,000 meters); videoendoscopy about 60 to 90 minutes after exercise; one value per individual horse (Horse 1-8) with previous EIPH; sesquihydrate
Description: (§1) Eight horses with previous evidence of EIPH were enrolled in the study. The candidate horses served as their own control and a predetermined rest period (no maximum exercise events) of one week was adhered to prior to initiation of the protocol. On initiation of the trial the subject horse received, prior to maximum exercise, either a dose of 10 μg/kg of weight of E4021 or a placebo. The eight horses were exercised in training/mock racing conditions at maximum intensity for greater than 1,000 meters followed by endoscopic exam/scoring about 60 to 90 minutes after the exercise event. Following exercise, the horses were examined with videoendoscopy for evidence of blood in the trachea about 60 minutes to 90 minutes after maximum exercise. The endoscope was passed to the level of the bifurcation of the trachea (carina) with images recorded on videotape.
An objective scoring system (Pascoe et al. 1985) was used to indicate the presence or absence of EIPH, as well as its severity, if present. […] Scoring was done by the veterinarian conducting the examination, then later by another individual using the recorded examination. […]
The E4021 was administered from vials containing 50 mg of E4021/30 ml. […] The Pl score was after placebo intervention and the post Tx Score was recorded after administration of E4021. […]

[2] = Untoward effects and systemic hemodynamics in the treated horses; format: in vivo, horse; details: eight horses, 10 μg/kg of E4021 prior to maximum exercise
Description: as §1

O.O.O.O=C([O-])C1CCN(c2nc(NCc3ccc4c(c3)OCO4)c3cc(Cl)ccc3n2)CC1.O=C([O-])C1CCN(c2nc(NCc3ccc4c(c3)OCO4)c3cc(Cl)ccc3n2)CC1.[Na+].[Na+] [E4021]
Post Tx (EIPH endoscopic score recorded after administration of E4021) [1]: 0 (3×) and 3 and 1 and 2 | Untoward effects [2]: did not experience any untoward effects | Systemic hemodynamics (e.g. cardiac output, blood pressure) ([2]; versus controls): remained unchanged from controls
